{"source": "patent US20170035778A1", "about": "“FORMULATIONS AND USES FOR MICROPARTICLE DELIVERY OF METALLOPORPHYRINS” (The Board of Trustees of the Leland Stanford Junior …, priority 2015, published 2017)", "origin": "cited, not measured here", "conditions": "SnMP within 24 h of birth in premature newborns"}
{"substance": "tin mesoporphyrin [SnMP]", "values": [{"measurement": "reduction of the requirement for phototherapy compared with control subjects", "result": "approximately 75%"}]}
